# Results reported in patent publication EP1080728A1, “PROSTAGLANDIN EP4 RECEPTOR AGONIST AND TREATMENT METHOD” (TORAY INDUSTRIES, INC., priority 1999, dated 2000).
# How the values were obtained:
# [1] = target: T1, human EP4 receptor subtype (Homo sapiens, UniProt P35408); experiment: Receptor binding study using PGE2 receptor subtype expression cells (3H-PGE2 displacement, membrane fraction); settings: human EP4 receptor transiently expressed in COS-7 cells, membrane fraction 10 µg/tube, 3H-PGE2 5 nM, 30°C for 1 hour; Ki = IC50/(1+[C]/Kd); read-out: DISSOCIATION CONSTANT Ki (nM) EP4
# T1 construct: expressed in transfected cells; host or cells: COS-7 cells (transient expression), membrane fraction
# Procedure: The compound represented by the following formula (II) among the compounds represented by the general formula (I) strongly binds to the EP4 receptor as a subtype of the PGE2 receptor. The binding activity was confirmed in comparison with PGE2 by an experiment using the PGE2 receptor subtype expression cells. [drawing 2]
# The experiment was carried out according to the previous report [Breyer, R. M. et al., J. Biol. Chem. 269, 6163-6169 (1994)], wherein the human EP4 receptor subtype was transiently expressed using COS-7 cells. These cells were prepared as membrane samples. The membrane fraction prepared (10 µg/tube) was incubated with reaction solution containing ^3H-PGE2 at 30°C for 1 hour. The reaction was terminated with ice-cold buffer [10mM MES (pH6.0), 10mM MgCl2, 1mM EDTA], and the bound ^3H-PGE2 was trapped on a glass filter (GF/C) by vacuum filtration under a reduced pressure, followed by counting the radioactivity with a liquid scintillator.
# The Kd value and Bmax were determined from a Scatchard plot according to the conventional method. The non-specific binding was determined by the amount of binding in the presence of an excess amount (5 µM) on the non-labeled PGE2. Inhibitory action of the ^3H-PGE2 binding by the compound to be tested was determined at a concentration of ^3H-PGE2 of 5 nM by adding various concentrations of the compound to be tested. […]
# [2] = test system: human normal lung fibroblast cells; experiment: Effects on collagen production in human normal lung fibroblast cells (TGF-β1 stimulated, Siricol Collagen Assay Kit); type: cell-based; settings: compound 1 µM with TGF-β1 5 ng/ml, incubated for 24 hours; salt-soluble collagen; Reference (without compound): 1.1 µg/100,000 cells
# Procedure: The suppression action of the compound represented by the formula (II) on the collagen production from the fibroblast cells was confirmed by the following test method. After the human normal lung fibroblast cells were cultured for 48 hours under the condition of confluence (Eagle MEM culture medium with 0.45% FBS), the cells were added(1 µM) the compound represented by the formula (II) and transforming growth factor β1 (TGF-β1) at a concentration of 5 ng/ml, then incubated for 24 hours. The supernatant from the cell culture medium was concentrated by freeze-drying, and the amount of collagen (salt-soluble collagen) was […] assayed using Siricol Collagen Assay Kit (made by Biocolor Co.). The amounts of collagen in the supernatant were as follows: Reference: 1.1 µg/100,000 cells Compound (II): 0.5 µg/100,000 cells It was confirmed that production of collagen by TGF-β1 was suppressed by the compound according to the present invention.
# T1 sequence (P35408 whole entry): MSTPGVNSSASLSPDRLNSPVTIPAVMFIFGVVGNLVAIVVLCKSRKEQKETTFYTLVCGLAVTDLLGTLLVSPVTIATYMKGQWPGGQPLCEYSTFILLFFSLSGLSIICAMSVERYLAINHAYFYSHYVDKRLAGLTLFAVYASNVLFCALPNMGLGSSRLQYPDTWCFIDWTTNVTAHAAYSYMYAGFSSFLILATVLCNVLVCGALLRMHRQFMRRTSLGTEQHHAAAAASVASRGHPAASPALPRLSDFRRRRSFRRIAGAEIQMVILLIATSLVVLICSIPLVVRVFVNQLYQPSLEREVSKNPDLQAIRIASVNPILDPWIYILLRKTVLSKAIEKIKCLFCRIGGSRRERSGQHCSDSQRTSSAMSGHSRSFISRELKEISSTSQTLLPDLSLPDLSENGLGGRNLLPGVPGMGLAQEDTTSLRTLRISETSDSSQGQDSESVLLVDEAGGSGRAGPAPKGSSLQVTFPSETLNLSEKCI
smiles,measurement,setting,value
O=C(O)CCc1cccc2c1O[C@H]1C[C@@H](O)[C@H](/C=C/[C@@H](O)CC3CCCCC3)[C@@H]21 [COMPOUND (II)],Ki,[1],19 nM
same,amounts of collagen in the supernatant,[2],"0.5 µg/100,000 cells"
